# Laboratory results reported in patent US20180311244A1, “METHODS OF TREATING LIVER DISEASE” (Gilead Sciences, Inc., priority 2017, published 2018).
# Marks after values point to notes of the source that are not given here.
# Tests used:
# [1] = test system: rodent model of non-alcoholic steatohepatitis (NASH); assay: Picrosirius Red staining of liver in CDHFD rat NASH model; type: in vivo; conditions: CDHFD rats, 12 weeks; ASK1i 0.03% in chow, Formula (III) 10 mg/kg QD PO; FIG. 7
# Procedure: The following study was conducted to evaluate the efficacy of the combination of an ASK1 inhibitor (ASK1i) and an ACC inhibitor (ACCi) in a rodent model of non-alcoholic steatohepatitis (NASH) relative to the efficacy of the individual agents alone in the model. In this model, NASH was induced in male Wistar rats by administration of a choline-deficient high fat diet (CDHFD).
# Male Wistar (Crl:Wi(Han)) rats (aged 8-9 weeks at arrival) were acquired from Charles River, Raleigh, N.C. and used in the current studies. This study complie with all applicable sections of the Final Rules of the Animal Welfare Act regulations (Code of Federal Regulations, Title 9), the Public Health Service Policy on Humane Care and Use of Laboratory Animals from the Office of Laboratory Animal Welfare, and the Guide for the Care and Use of Laboratory Animals from the National Research Council. […]
# Whole slide images of Picrosirius Red (PSR) stained slides were captured using a Leica AT2 scanner at 40× magnification. […] Quantitative image analysis was performed on the whole slide images using Visiopharm image analysis software (Visiopharm, Hoersholm, Denmark) to determine the extent and intensity of PSR. The total PSR-stained area was measured and expressed as a percentage of total liver area stained.
# [2] = test system: subjects with NASH; assay: 12-week study of ASK1 inhibitor, ACC inhibitor and combination in subjects with NASH; type: in vivo, human
# Procedure: Centrally-read PDFF and MRE, and serum fibrosis markers were measured at baseline (BL), W4 and W12. Deuterated water was administered to measure fractional synthesis of lipids (de novo lipogenesis [DNL]).
# [3] = W12, orally QD, Formula (II) 18 mg, Formula (IV) 20 mg, combination 18/20 mg
# [4] = serum, W12, orally QD, Formula (II) 18 mg, Formula (IV) 20 mg, combination 18/20 mg
Structure (SMILES),Reduction of hepatic PSR (% area) [1],"PDFF compared with BL (in words) ([2]; 12 weeks orally QD, Formula (IV) p=0.006, combination p<0.001)","ALT compared with BL (in words) ([2]; 12 weeks orally QD, combination p=0.019)","PIII-NP compared with BL (in words) ([2]; 12 weeks orally QD, combination p=0.057)","TIMP-1 compared with BL (in words) ([2]; 12 weeks orally QD, p=0.049)","Grade 2 or higher AE, % of subjects ([2]; 12 weeks, orally QD, Formula (II) 18 mg, Formula (IV) 20 mg, combination 18/20 mg)","ALT, median relative (%) change from BL [2, 3]","GGT, median relative (%) change from BL [2, 3]","MRE, median relative (%) change from BL [2, 3]","MRI-PDFF, median relative (%) change from BL [2, 3]","≥30% reduction in MRI-PDFF, % of subjects [2, 3]","PIII-NP, median relative (%) change from BL [2, 4]","TIMP-1, median relative (%) change from BL [2, 4]"
COc1ccccc1[C@H](Cn1c(=O)n(C(C)(C)C(=O)O)c(=O)c2c(C)c(-c3ncco3)sc21)O[C@H]1CC[C@@H](O)CC1 [Formula (III)],50%,,,,,,,,,,,,
COc1ccccc1[C@H](Cn1c(=O)n(C(C)(C)C(=O)O)c(=O)c2c(C)c(-c3ncco3)sc21)OC1CCOCC1 [Formula (IV)],,significant improvements,non-significant reductions,non-significant reductions,significant improvements,40%,−33.5%,−1.6%,−8.9%,−42.7* %,70%,−11.9%,−11.6* %
